Source: patent US10414811B2, “Protease-resistant lipidated GLP-1 analogs” (MEDIMMUNE LIMITED, priority 2015, dated 2019)
pEC50: −log10 of the molar value. Where two headings read alike, the source gives them in different places. Numbered stars: 1 amine (or outer) side, 2 acyl side, 3 side chain; on linkers, the order of the positions; unused ones are H or OH. Square brackets hold non-standard residues; d marks the D form. Side chains are listed from the residue outwards. Peptide text beside a SMILES is read from it. * marks the point of attachment. C18 diacid = O=C(O)CCCCCCCCCCCCCCCCC(=O)*; γGlu = O=C(O)[C@H](CCC(=O)[*:2])N[*:1]; αMeF = C[C@](N)(Cc1ccccc1)C(=O)O; αMeK = C[C@](N)(CCCCN)C(=O)O; αMeS = C[C@](N)(CO)C(=O)O; AEEA = NCCOCCOCC(=O)O; Aib = CC(C)(N)C(=O)O

What was measured:
[1] = target: T1, human glucagon receptor (GCGR) (Homo sapiens, UniProt P47871); experiment: cAMP assay, human GCGR cells; format: cell-based; settings: cAMP assay
T1 construct: expressed in transfected cells
T1 sequence (P47871 26-477): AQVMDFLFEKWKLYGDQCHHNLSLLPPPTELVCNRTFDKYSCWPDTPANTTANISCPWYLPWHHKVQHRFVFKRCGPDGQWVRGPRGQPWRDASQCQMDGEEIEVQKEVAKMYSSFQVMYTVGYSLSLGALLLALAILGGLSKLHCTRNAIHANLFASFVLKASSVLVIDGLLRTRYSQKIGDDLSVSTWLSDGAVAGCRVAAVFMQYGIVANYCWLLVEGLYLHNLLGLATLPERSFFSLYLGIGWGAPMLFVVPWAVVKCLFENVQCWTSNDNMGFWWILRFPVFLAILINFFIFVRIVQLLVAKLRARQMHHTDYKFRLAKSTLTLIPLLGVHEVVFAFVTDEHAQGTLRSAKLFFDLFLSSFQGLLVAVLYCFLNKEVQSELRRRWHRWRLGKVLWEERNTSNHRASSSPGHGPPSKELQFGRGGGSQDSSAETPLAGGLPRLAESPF
Method in brief: (§1)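 Peptide-stimulated cAMP measured by two-step HTRF after a 30 min room-temperature incubation with receptor-expressing cells (hGLP-1R, hGIPR at 1×10^5 cells/ml; hGCGR at 2×10^5 cells/ml). Duplicate dilutions; EC50 from 4-parameter logistic fit of % Delta F.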

GLP-1R (INS1e assay) = target: T2, GLP-1R (INS1e assay) (Rattus norvegicus, UniProt P32301); experiment: INS1e assay, cAMP activity at GLP-1R; format: cell-based; settings: mono-lipidated peptides; for EC50: mean of n1 and n2, read-out: INS1e assay EC50 Mean pM GLP-1R
T2 construct: endogenous in cells; host or cells: INS-1E cells
T2 sequence (P32301 22-463): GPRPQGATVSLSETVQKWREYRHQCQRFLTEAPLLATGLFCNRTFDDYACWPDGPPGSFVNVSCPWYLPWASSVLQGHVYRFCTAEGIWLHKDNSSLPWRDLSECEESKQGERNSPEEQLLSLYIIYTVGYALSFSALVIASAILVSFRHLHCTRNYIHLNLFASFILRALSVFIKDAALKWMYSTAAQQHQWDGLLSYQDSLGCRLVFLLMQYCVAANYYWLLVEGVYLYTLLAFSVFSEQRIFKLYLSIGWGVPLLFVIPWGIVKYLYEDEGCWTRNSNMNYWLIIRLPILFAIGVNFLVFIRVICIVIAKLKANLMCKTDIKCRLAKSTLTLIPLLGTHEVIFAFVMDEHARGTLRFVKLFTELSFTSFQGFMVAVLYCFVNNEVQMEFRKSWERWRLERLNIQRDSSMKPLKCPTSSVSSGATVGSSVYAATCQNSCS
Method in brief: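 cAMP was quantified by two-step HTRF, using anti-cAMP cryptate donor and cAMP-d2 acceptor, each diluted 1/20 in conjugate and lysis buffer. EC50 values of the synthetic peptides were derived from the cAMP readout.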

[2] = target: T3, human glucose-dependent insulinotropic peptide receptor (GIPR) (Homo sapiens, UniProt P48546); experiment: cAMP assay, human GIPR cells; format: cell-based; settings: cAMP assay
T3 construct: expressed in transfected cells
T3 sequence (P48546 22-466): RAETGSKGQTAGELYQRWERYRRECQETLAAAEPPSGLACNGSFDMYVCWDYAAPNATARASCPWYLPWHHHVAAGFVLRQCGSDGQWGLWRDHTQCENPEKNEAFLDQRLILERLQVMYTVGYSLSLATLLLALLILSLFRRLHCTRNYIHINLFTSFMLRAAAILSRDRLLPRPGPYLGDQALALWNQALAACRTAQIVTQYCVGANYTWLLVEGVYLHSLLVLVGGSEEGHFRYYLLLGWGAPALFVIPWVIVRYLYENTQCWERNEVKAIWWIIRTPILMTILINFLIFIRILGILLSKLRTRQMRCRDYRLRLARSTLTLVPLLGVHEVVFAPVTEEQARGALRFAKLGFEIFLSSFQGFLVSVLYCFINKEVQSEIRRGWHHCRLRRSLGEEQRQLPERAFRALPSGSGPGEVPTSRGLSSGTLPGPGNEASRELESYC
Method in brief: as §1

Neprilysin = target: T4, Neprilysin (Homo sapiens, UniProt P08473); experiment: Proteolytic resistance to neprilysin (% remaining peptide, RP-HPLC AUC); format: in vitro ADME; settings: 37° C., pH 8.3; for remaining at 0.5 h / remaining at 1 h / remaining at 2 h / remaining at 4 h / remaining at 8 h / remaining at 24 h: recombinant neprilysin; for remaining at 0.5 h: t = 30 min; for remaining at 1 h: t = 1 hr; for remaining at 2 h: t = 2 hr; for remaining at 4 h: t = 4 hr; for remaining at 8 h: t = 8 hr; for remaining at 24 h: t = 24 hr, read-out: Percentage remaining peptide (AUC at specified time-point by RP-HPLC) upon incubation with neprilysin, t = 24 hr
T4 construct: purchased R&D Systems 1182-ZNC-010
T4 sequence (P08473 whole entry): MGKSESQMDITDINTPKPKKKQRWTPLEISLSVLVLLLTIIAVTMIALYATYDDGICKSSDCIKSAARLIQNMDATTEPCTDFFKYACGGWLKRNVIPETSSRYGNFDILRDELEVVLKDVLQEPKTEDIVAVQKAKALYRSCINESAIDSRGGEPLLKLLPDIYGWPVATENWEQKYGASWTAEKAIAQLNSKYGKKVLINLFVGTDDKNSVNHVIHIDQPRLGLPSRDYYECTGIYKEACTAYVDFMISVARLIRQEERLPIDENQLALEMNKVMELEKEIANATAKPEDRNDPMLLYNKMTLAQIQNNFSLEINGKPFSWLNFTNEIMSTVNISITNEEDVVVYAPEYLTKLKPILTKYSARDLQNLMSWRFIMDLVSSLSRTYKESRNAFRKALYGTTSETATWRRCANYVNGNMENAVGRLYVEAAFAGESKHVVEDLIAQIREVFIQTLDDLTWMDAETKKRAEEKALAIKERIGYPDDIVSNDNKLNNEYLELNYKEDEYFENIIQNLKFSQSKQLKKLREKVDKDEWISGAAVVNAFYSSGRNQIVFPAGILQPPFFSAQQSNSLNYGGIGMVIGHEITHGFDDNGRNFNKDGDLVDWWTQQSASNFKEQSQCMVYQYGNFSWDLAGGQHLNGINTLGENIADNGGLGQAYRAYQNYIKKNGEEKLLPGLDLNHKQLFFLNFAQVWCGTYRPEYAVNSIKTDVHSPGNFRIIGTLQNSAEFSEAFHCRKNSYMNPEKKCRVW
Method: Ratio enzyme (units):peptide (μmoles)˜1:33. […] Ratio enzyme (units):peptide (μmoles)˜1:2.5.
15 μL aliquots (˜15 μg initial peptide) of the peptide-enzyme mixture were periodically withdrawn (t=0, 30 mins, 1 hr, 2 hr, 4 hr, 8 hr, 24 hr) and quenched immediately by addition to an equal volume (15 μL) of 5% TFA (v/v) in 1:1 water/acetonitrile to arrest proteolytic activity. 20 μL aliquots (˜10 μg initial peptide) were analyzed by LC/MS and/or analytical RP-HPLC as follows: LC/MS method: Agilent Polaris C8-A column (4.6×100 mm, 3 micron) eluted with a linear binary gradient of 10-90% MeCN (0.1% TFA v/v) in water (0.1% TFA v/v) over 30 mins at 1.5 mL min-1 at ambient temperature with detection by both UV absorption at 210 nm and ionization using a Waters 3100 mass detector (ESI+ mode). Peptide fragments deriving from enzymatic hydrolysis were identified by molecular weight, allowing location of the site of cleavage. Analytical RP-HPLC method: Agilent Polaris C8-A column (4.6×100 mm, 3 micron) eluted with a linear binary gradient of 10-90% MeCN (0.1% TFA v/v) in water (0.1% TFA v/v) over either 10 or 15 mins at 1.5 mL min^−1 at 40° C. with detection by UV absorption at 210 nm. Manual integration (AUC) allowed estimation of remaining intact peptide over the time course of the experiment.
25 μL aliquots (˜6 μg initial peptide) were analyzed by LC/MS and/or analytical RP-HPLC as follows: LC/MS method: Agilent Polaris C8-A column (4.6×100 mm, 3 micron) eluted with a linear binary gradient of 10-90% MeCN (0.1% TFA v/v) in water (0.1% TFA v/v) over 30 mins at 1.5 mL min^−1 at ambient temperature with detection by both UV absorption at 210 nm and ionization using a Waters 3100 mass detector (ESP mode). Peptide fragments deriving from enzymatic hydrolysis were identified by molecular weight, allowing location of the site of cleavage. Analytical RP-HPLC method: Agilent Polaris C8-A column (4.6×100 mm, 3 micron) eluted with a linear binary gradient of 10-90% MeCN (0.1% TFA v/v) in water (0.1% TFA v/v) over either 10 or 15 mins at 1.5 mL min^−1 at 40° C. with detection by UV absorption at 210 nm. Manual integration (AUC) allowed estimation of remaining intact peptide over the time course of the experiment.

pepsin = target: T5, pepsin (Sus scrofa, UniProt P00791); experiment: Proteolytic resistance to pepsin (% remaining intact peptide, RP-HPLC AUC); format: in vitro ADME; settings: pig, porcine pepsin, 37° C., pH 2.0, read-out: Percentage remaining intact peptide (AUC by RP-HPLC) upon incubation with pepsin; for remaining at 0.5 h: t = 30 min; for remaining at 1 h: t = 1 hr; for remaining at 2 h: t = 2 hr; for remaining at 4 h: t = 4 hr; for remaining at 8 h: t = 8 hr; for remaining at 24 h: t = 24 hr
T5 construct: purchased Sigma P7012
T5 sequence (P00791 60-385): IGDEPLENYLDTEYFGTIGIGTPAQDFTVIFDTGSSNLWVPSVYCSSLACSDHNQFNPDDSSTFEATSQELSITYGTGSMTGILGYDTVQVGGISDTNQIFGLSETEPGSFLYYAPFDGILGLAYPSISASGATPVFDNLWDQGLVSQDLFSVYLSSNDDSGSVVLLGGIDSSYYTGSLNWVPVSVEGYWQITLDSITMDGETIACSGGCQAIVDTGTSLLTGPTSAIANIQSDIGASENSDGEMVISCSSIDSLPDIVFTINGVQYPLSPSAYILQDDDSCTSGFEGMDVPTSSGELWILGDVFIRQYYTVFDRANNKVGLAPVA
Method: Lyophilized porcine […] pepsin (Sigma: P7012) was reconstituted to afford a solution of 200 μg/mL (˜500 units/mL) in assay buffer (0.1 M HCl, pH 2.0) to give the enzyme stock solution. […] Ratio enzyme (units):peptide (μmoles)˜1:6. […] Ratio enzyme (units):peptide (μmoles)˜2:1.
Lyophilized porcine […] pepsin (Sigma: P7012) was reconstituted to 200 μg/mL (˜500 units/mL) in assay buffer (1.0 M HCl, pH 2.0) to give the enzyme stock solution.

trypsin = target: T6, trypsin (Sus scrofa, UniProt P00761); experiment: Proteolytic resistance to trypsin (% remaining intact peptide, RP-HPLC AUC); format: in vitro ADME; settings: pig, porcine pancreatic trypsin, 37° C., pH 7.8, read-out: Percentage remaining intact peptide (AUC by RP-HPLC) upon incubation with trypsin; for remaining at 0.5 h: t = 30 min; for remaining at 1 h: t = 1 hr; for remaining at 2 h: t = 2 hr; for remaining at 4 h: t = 4 hr; for remaining at 8 h: t = 8 hr; for remaining at 24 h: t = 24 hr
T6 construct: purchased Sigma T7409
T6 sequence (P00761 9-231): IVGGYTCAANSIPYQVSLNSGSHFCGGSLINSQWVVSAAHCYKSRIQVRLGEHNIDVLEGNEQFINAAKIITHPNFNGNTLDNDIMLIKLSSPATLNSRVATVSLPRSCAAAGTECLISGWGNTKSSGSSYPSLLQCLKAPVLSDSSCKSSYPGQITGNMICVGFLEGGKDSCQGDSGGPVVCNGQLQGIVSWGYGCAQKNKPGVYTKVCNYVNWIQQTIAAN
Excerpt: Ratio enzyme (units):peptide (μmoles)˜1:11. […] Ratio enzyme (units):peptide (μmoles)˜1.2:1.

[3] = target: T7, human GLP-1 receptor (GLP-1R) (Homo sapiens, UniProt P43220); experiment: cAMP assay, human GLP-1R cells; format: cell-based; settings: for pEC50: cAMP assay; for EC50: mean of n1 and n2, read-out: Mean pM GLP-1R
T7 construct: expressed in transfected cells
T7 sequence (P43220 24-463): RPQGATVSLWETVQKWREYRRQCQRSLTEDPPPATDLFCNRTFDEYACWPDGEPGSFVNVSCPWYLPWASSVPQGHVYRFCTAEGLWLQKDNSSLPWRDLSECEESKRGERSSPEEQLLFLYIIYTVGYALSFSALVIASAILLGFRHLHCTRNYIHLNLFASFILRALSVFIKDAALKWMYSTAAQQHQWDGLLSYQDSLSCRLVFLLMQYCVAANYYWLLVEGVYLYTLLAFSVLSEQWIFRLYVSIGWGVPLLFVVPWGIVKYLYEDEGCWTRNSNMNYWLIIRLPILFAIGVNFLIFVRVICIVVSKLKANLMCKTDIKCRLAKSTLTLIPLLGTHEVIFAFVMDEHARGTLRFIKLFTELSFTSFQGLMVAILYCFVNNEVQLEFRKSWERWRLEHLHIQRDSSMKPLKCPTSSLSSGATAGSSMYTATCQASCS
Method in brief: as §1

[4] = first determination (n1), read-out: Primary assay EC50 Gluc-R (n1)
[5] = second determination (n2), read-out: Primary assay EC50 Gluc-R (n2)
[6] = replicate n1, read-out: INS1e assay EC50 GLP-1R n1
[7] = replicate n2, read-out: INS1e assay EC50 GLP-1R n2
[8] = first determination (n1), read-out: Primary assay EC50 GIP-R (n1)
[9] = second determination (n2), read-out: Primary assay EC50 GIP-R (n2)
[10] = first determination (n1), read-out: Primary assay EC50 GLP-1R n1
[11] = second determination (n2), read-out: Primary assay EC50 GLP-1R n2

| SMILES | pEC50 [1, 4] | pEC50 [1, 5] | EC50 (GLP-1R (INS1e assay)) | pEC50 (GLP-1R (INS1e assay); [6]) | pEC50 (GLP-1R (INS1e assay); [7]) | pEC50 [2, 8] | pEC50 [2, 9] | remaining at 0.5 h (Neprilysin) | remaining at 1 h (Neprilysin) | remaining at 2 h (Neprilysin) | remaining at 4 h (Neprilysin) | remaining at 8 h (Neprilysin) | remaining at 24 h (Neprilysin) | Percentage remaining peptide (AUC at specified time-point by RP-HPLC) upon incubation with neprilysin, t = 0 (Neprilysin) | remaining at 0.5 h (pepsin) | remaining at 1 h (pepsin) | remaining at 2 h (pepsin) | remaining at 4 h (pepsin) | remaining at 8 h (pepsin) | remaining at 24 h (pepsin) | also measured |
| --- | --- | --- | --- | --- | --- | --- | --- | --- | --- | --- | --- | --- | --- | --- | --- | --- | --- | --- | --- | --- | --- |
| CC[C@H](C)[C@H](NC(=O)[C@H](Cc1ccccc1)NC(=O)[C@H](CCC(=O)O)NC(=O)[C@H](CCCCNC(=O)COCCOCCNC(=O)COCCOCCNC(=O)CC[C@H](NC(=O)CCCCCCCCCCCCCCCCC(=O)O)C(=O)O)NC(=O)[C@H](C)NC(=O)[C@H](C)NC(=O)[C@H](CCC(=O)O)NC(=O)CNC(=O)[C@H](CCC(=O)O)NC(=O)[C@H](CC(C)C)NC(=O)[C@](C)(Cc1ccccc1)NC(=O)[C@H](CO)NC(=O)[C@](C)(CO)NC(=O)[C@@H](NC(=O)[C@H](CC(=O)O)NC(=O)[C@H](CO)NC(=O)[C@@H](NC(=O)[C@](C)(Cc1ccccc1)NC(=O)[C@H](CO)NC(=O)CNC(=O)[C@H](CCC(=O)O)NC(=O)C(C)(C)NC(=O)[C@@H](N)Cc1c[nH]cn1)[C@@H](C)O)C(C)C)C(=O)N[C@@H](C)C(=O)N[C@@](C)(Cc1ccccc1)C(=O)N[C@H](C(=O)N[C@H](C(=O)N[C@@](C)(CCCCN)C(=O)NCC(=O)NCC(N)=O)C(C)C)C(C)C [compound 48] | ≤ 7.59 | ≤ 7.59 | 800 pM | 9.14 | 9.06 | ≤ 7.59 | ≤ 7.59 | 96.8% | 96.5% | 93% | 93.9% | 89.5% | 90% | 100% | 89.1% | 80.8% | 71.4% | 60.6% | 45.9% | 9.4% | remaining at 0.5 h (trypsin): 93%; remaining at 1 h (trypsin): 89.2%; remaining at 2 h (trypsin): 83.5%; remaining at 4 h (trypsin): 75.6%; remaining at 8 h (trypsin): 68.9%; remaining at 24 h (trypsin): 56.5%; pEC50 [3, 10]: 11.41; pEC50 [3, 11]: 11.09; EC50 [3]: 6.1 pM |
| CC[C@H](C)[C@H](NC(=O)[C@H](Cc1ccccc1)NC(=O)[C@H](CCC(=O)O)NC(=O)[C@](C)(CCCCN)NC(=O)[C@H](C)NC(=O)[C@H](C)NC(=O)[C@H](CCC(=O)O)NC(=O)CNC(=O)[C@H](CCC(=O)O)NC(=O)[C@H](CC(C)C)NC(=O)[C@](C)(Cc1ccccc1)NC(=O)[C@H](CO)NC(=O)[C@](C)(CO)NC(=O)[C@@H](NC(=O)[C@H](CC(=O)O)NC(=O)[C@H](CO)NC(=O)[C@@H](NC(=O)[C@](C)(Cc1ccccc1)NC(=O)[C@H](CO)NC(=O)CNC(=O)[C@H](CCC(=O)O)NC(=O)C(C)(C)NC(=O)[C@@H](N)Cc1c[nH]cn1)[C@@H](C)O)C(C)C)C(=O)N[C@@H](CCCCNC(=O)COCCOCCNC(=O)COCCOCCNC(=O)CC[C@H](NC(=O)CCCCCCCCCCCCCCCCC(=O)O)C(=O)O)C(=O)N[C@@H](Cc1c[nH]c2ccccc12)C(=O)N[C@H](C(=O)N[C@H](C(=O)N[C@@H](CCC(=O)O)C(=O)NCC(=O)NCC(N)=O)C(C)C)C(C)C [compound 68] (H-H[Aib]EGS[αMeF]TSDV[αMeS]S[αMeF]LEGEAA[αMeK]EFIK([AEEA-AEEA-γGlu-C18 diacid])WVVEGG-NH2; N-terminus assumed) | ≤ 7.60 | ≤ 7.60 | 3780 pM | 8.57 | 8.31 | ≤ 7.60 | ≤ 7.60 | 97.4% | 95.4% | 96.4% | 95.4% | 93.9% | 94.9% | 100% | 96.5% | 94.7% | 92.2% | 88.2% | 86% | 85.3% | remaining at 0.5 h (trypsin): 92.3%; remaining at 1 h (trypsin): 86.2%; remaining at 2 h (trypsin): 76.8%; remaining at 4 h (trypsin): 48.6%; remaining at 8 h (trypsin): 39.8%; remaining at 24 h (trypsin): 27.4%; pEC50 [3, 10]: 10.66; pEC50 [3, 11]: 10.81; EC50 [3]: 18.8 pM |
